{"source": "patent US11254688B2", "about": "(Boehringer Ingelheim International GmbH, priority 2018, dated 2022)"}
{"molecular_target": "T1, hGOAT (Homo sapiens, UniProt Q96T53)", "T1 construct": "expressed in transfected cells; host or cells: HEK293 (Hek293 hGOAT/PPGhrl Clone #1B8)", "T1 sequence (Q96T53 1-435)": "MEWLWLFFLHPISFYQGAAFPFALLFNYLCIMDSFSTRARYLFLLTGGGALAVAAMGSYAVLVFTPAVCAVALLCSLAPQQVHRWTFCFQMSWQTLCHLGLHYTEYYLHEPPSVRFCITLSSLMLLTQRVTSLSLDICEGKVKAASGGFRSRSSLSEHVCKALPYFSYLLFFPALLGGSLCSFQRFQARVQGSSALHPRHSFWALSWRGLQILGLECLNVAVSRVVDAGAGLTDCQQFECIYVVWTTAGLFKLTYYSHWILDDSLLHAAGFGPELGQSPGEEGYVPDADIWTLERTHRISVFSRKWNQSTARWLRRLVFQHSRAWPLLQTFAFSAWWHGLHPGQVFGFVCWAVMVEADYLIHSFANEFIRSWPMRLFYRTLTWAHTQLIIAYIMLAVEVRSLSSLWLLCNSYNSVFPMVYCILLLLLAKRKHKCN", "experiment": "Determination of hGOAT activity in HEK293 cells after incubation with test compound (acyl-ghrelin ELISA)", "format": "cell-based", "details": "HEK293 cells stably transfected with preproghrelin and human GOAT; octanoate-BSA 100 μM; 5 hours incubation; acyl-ghrelin in medium by ELISA; 8 compound concentrations", "units": {"IC50": "nM"}}
{"smiles": "Cc1nc2nonc2c(N)c1Cc1ccc(C(F)(F)F)c(C(=O)N(C)C)c1", "note": "[Compound 15.6, 5-({7-Amino-5-methyl-[1,2,5]oxadiazolo[3,4-b]pyridin-6-yl}methyl)-N,N-dimethyl-2-(trifluoromethyl)benzamide]", "IC50": 1.26}
{"smiles": "Cc1nc2nonc2c(N)c1Cc1ccc(OC(F)F)n2cnnc12", "note": "[Compound 4.15, 6-{[5-(Difluoromethoxy)-[1,2,4]triazolo[4,3-a]pyridin-8-yl]methyl}-5-methyl-[1,2,5]oxadiazolo[3,4-b]pyridin-7-amine]", "IC50": 0.33}
{"smiles": "Cc1nc2nonc2c(N)c1Cc1cccc(-c2ccn[nH]2)c1", "note": "[Compound 12.1, 5-Methyl-6-{[3-(1H-pyrazol-5-yl)phenyl]methyl}-[1,2,5]oxadiazolo[3,4-b]pyridin-7-amine]", "IC50": 0.079}
{"smiles": "Cc1nc2nonc2c(N)c1Cc1ccc(Br)c(C#N)c1", "note": "[Compound 4.61, 5-({7-Amino-5-methyl-[1,2,5]oxadiazolo[3,4-b]pyridin-6-yl}methyl)-2-bromobenzonitrile]", "IC50": 0.542}
